Measurements: the supplement of paper PMC11451515

Test system: P12-Ichikawa
Assay: cell viability relative to DMSO control; higher = less cytotoxic
Details: 48 h
Method in brief: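 Viability values are per-plate percentages of DMSO wells, with background from cell-free wells. Library compounds in DMSO were pin-dosed, in an 11-point threefold series from 47 μM to 0.79 nM, onto NOMO1 or SEM (500 cells/well) or P12-Ichikawa (1000 cells/well) leukemia cells in 1536-well plates (5 μl). Those cells had been adapted for at least four passages in each medium, and CellTiter-Glo One luminescence was read after 48 h at 37°C.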

[1] = HPLM + 10% dialyzed FBS, 0.000781 µM
[2] = HPLM + 10% dialyzed FBS, 0.00234 µM
[3] = HPLM + 10% dialyzed FBS, 0.00702 µM
[4] = HPLM + 10% dialyzed FBS, 0.0211 µM
[5] = HPLM + 10% dialyzed FBS, 0.0632 µM
[6] = HPLM + 10% dialyzed FBS, 0.19 µM
[7] = HPLM + 10% dialyzed FBS, 0.569 µM
[8] = HPLM + 10% dialyzed FBS, 1.71 µM
[9] = HPLM + 10% dialyzed FBS, 5.12 µM
[10] = HPLM + 10% dialyzed FBS, 15.4 µM
[11] = HPLM + 10% dialyzed FBS, 46.1 µM
[12] = RPMI 5 mM glucose + 10% FBS, 0.000781 µM
[13] = RPMI 5 mM glucose + 10% FBS, 0.00234 µM
[14] = RPMI 5 mM glucose + 10% FBS, 0.00702 µM
[15] = RPMI 5 mM glucose + 10% FBS, 0.0211 µM
[16] = RPMI 5 mM glucose + 10% FBS, 0.0632 µM
[17] = RPMI 5 mM glucose + 10% FBS, 0.19 µM
[18] = RPMI 5 mM glucose + 10% FBS, 0.569 µM
[19] = RPMI 5 mM glucose + 10% FBS, 1.71 µM
[20] = RPMI 5 mM glucose + 10% FBS, 5.12 µM
[21] = RPMI 5 mM glucose + 10% FBS, 15.4 µM
[22] = RPMI 5 mM glucose + 10% FBS, 46.1 µM
[23] = RPMI 5 mM glucose + 10% dialyzed FBS, 0.000781 µM
[24] = RPMI 5 mM glucose + 10% dialyzed FBS, 0.00234 µM
[25] = RPMI 5 mM glucose + 10% dialyzed FBS, 0.00702 µM
[26] = RPMI 5 mM glucose + 10% dialyzed FBS, 0.0211 µM
[27] = RPMI 5 mM glucose + 10% dialyzed FBS, 0.0632 µM
[28] = RPMI 5 mM glucose + 10% dialyzed FBS, 0.19 µM
[29] = RPMI 5 mM glucose + 10% dialyzed FBS, 0.569 µM
[30] = RPMI 5 mM glucose + 10% dialyzed FBS, 1.71 µM
[31] = RPMI 5 mM glucose + 10% dialyzed FBS, 5.12 µM
[32] = RPMI 5 mM glucose + 10% dialyzed FBS, 15.4 µM
[33] = RPMI 5 mM glucose + 10% dialyzed FBS, 46.1 µM

SMILES | cell viability [1] [%] | cell viability [2] [%] | cell viability [3] [%] | cell viability [4] [%] | cell viability [5] [%] | cell viability [6] [%] | cell viability [7] [%] | cell viability [8] [%] | cell viability [9] [%] | cell viability [10] [%] | cell viability [11] [%] | cell viability [12] [%] | cell viability [13] [%] | cell viability [14] [%] | cell viability [15] [%] | cell viability [16] [%] | cell viability [17] [%] | cell viability [18] [%] | cell viability [19] [%] | cell viability [20] [%] | cell viability [21] [%] | cell viability [22] [%] | cell viability [23] [%] | cell viability [24] [%] | cell viability [25] [%] | cell viability [26] [%] | cell viability [27] [%] | cell viability [28] [%] | cell viability [29] [%] | cell viability [30] [%] | cell viability [31] [%] | cell viability [32] [%] | cell viability [33] [%]
C=C(C)[C@@H]1CC[C@]2(C(=O)O)CC[C@]3(C)[C@H](CC[C@@H]4[C@@]5(C)CC[C@H](O)C(C)(C)[C@@H]5CC[C@]43C)[C@@H]12 | 111 | 123 | 120 | 114 | 116 | 111 | 109 | 103 | 99.9 | 99.1 | 97.3 | 108 | 116 | 114 | 109 | 116 | 107 | 119 | 106 | 97.8 | 98.5 | 103 | 114 | 121 | 120 | 110 | 108 | 102 | 111 | 100 | 95.1 | 94.3 | 87.3
Cl.Cl.Cl.O[C@@H](COc1cccc2ncccc12)CN1CCN([C@@H]2c3ccccc3[C@@H]3[C@H](c4ccccc42)C3(F)F)CC1 | 94.8 | 94.5 | 88.4 | 89.7 | 90.5 | 92.9 | 84 | 83.8 | 81.8 | 84.5 | 79.3 | 89.1 | 79.1 | 77.9 | 84 | 88.5 | 87 | 71 | 81.6 | 78.4 | 79.8 | 84.6 | 91.8 | 84.3 | 86.3 | 86.7 | 81.6 | 84.6 | 84.4 | 77.8 | 78.6 | 78.4 | 76.3
CCC(C)SSc1ncc[nH]1 (stereo not given) | 91.9 | 99.9 | 97.1 | 105 | 98.2 | 103 | 94.9 | 111 | 101 | 69.5 | 10.6 | 92.8 | 102 | 91.1 | 90 | 96.1 | 95 | 93.8 | 98.1 | 99.7 | 62.1 | 6.08 | 92 | 91.4 | 93.5 | 90.4 | 90.1 | 95.8 | 89.9 | 97.6 | 92 | 34.8 | 5.7
CC(C)NCC(O)COc1ccc(COCCOC(C)C)cc1 (stereo not given) | 115 | 117 | 105 | 103 | 113 | 118 | 112 | 96.5 | 92.6 | 107 | 99.5 | 113 | 121 | 120 | 120 | 131 | 124 | 115 | 110 | 110 | 116 | 115 | 113 | 106 | 107 | 111 | 114 | 104 | 105 | 104 | 104 | 104 | 104
NC(=O)c1cnc(N[C@@H]2CCCC[C@@H]2N)nc1Nc1cccc(-n2nccn2)c1 | 111 | 117 | 126 | 124 | 122 | 132 | 136 | 128 | 123 | 133 | 77.6 |  |  |  |  |  |  |  |  |  |  |  |  |  |  |  |  |  |  |  |  |  | 
Cc1nc(NC(=O)N2CCC[C@H]2C(N)=O)sc1-c1ccnc(C(C)(C)C(F)(F)F)c1 | 96.4 | 100 | 97.1 | 93.3 | 97.7 | 92.4 | 89.8 | 87.6 | 72.2 | 62.9 | 83.2 | 89.4 | 89.2 | 95.4 | 93.7 | 90.6 | 86.9 | 79.6 | 76.2 | 57.5 | 48.3 | 77.8 | 97.9 | 92.4 | 94.4 | 91.8 | 93.4 | 81.5 | 86.7 | 78.9 | 63.7 | 51.6 | 83.3
CC1CCC(C(=O)N(c2cc(C#CC(C)(C)C)sc2C(=O)O)C2CCC(O)CC2)CC1 (stereo not given) | 102 | 91.2 | 98.4 | 95.9 | 95.1 | 95.7 | 93.1 | 88.2 | 83.2 | 59.5 | 49 | 91.2 | 96.3 | 92.4 | 92.5 | 95.6 | 87 | 96.7 | 75.9 | 71.9 | 49.2 | 45.5 | 85.8 | 92.4 | 77.3 | 95 | 86.3 | 83.8 | 88.5 | 77.4 | 69.2 | 54.3 | 38.4
O=C(NOCC(O)CO)c1cc(Br)c(F)c(F)c1Nc1ccc(I)cc1F (stereo not given) | 82.9 | 84.2 | 81.7 | 87.8 | 83.8 | 74.8 | 74.4 | 68.2 | 64.2 | 73.9 | 52.3 | 74.6 | 87.6 | 79 | 73.8 | 80.3 | 67.9 | 63.8 | 62.5 | 56.2 | 66.4 | 54.5 | 76.2 | 79.2 | 73.9 | 81.9 | 74.3 | 71.2 | 65.6 | 71.8 | 66.1 | 76.6 | 58.7
COc1nccc(-c2c(-c3ccc(F)cc3)ncn2C2CCNCC2)n1 | 99.1 | 108 | 113 | 110 | 113 | 100 | 96 | 100 | 104 | 90.6 | 80.2 | 109 | 112 | 106 | 120 | 117 | 106 | 108 | 98.2 | 109 | 104 | 90.5 | 98.2 | 111 | 117 | 111 | 119 | 110 | 106 | 98.9 | 104 | 94.7 | 80.7
CCC1(C)CC(=O)NC1=O (stereo not given) | 101 | 103 | 104 | 104 | 108 | 116 | 100 | 102 | 94.9 | 96.7 | 94.7 | 99.4 | 105 | 115 | 101 | 111 | 105 | 102 | 99.3 | 106 | 92 | 87.4 | 101 | 101 | 101 | 97.3 | 104 | 104 | 102 | 96.3 | 96.3 | 97.1 | 88.9
C[C@]12C[C@H](O)[C@H]3[C@@H](CC\C4=C\C(=O)\C=C/[C@]34C)[C@@H]1CC[C@]2(O)C(=O)CO |  |  |  |  |  |  |  |  |  |  |  |  |  |  |  |  |  |  |  |  |  |  | 128 | 118 | 119 | 121 | 117 | 107 | 88.2 | 69.7 | 57.9 | 52 | 14
C[C@H](O)[C@H]1[C@@H]2[C@H](C)C(=C(\N2C1=O)C(O)=O)/S[C@@H]3CN[C@H](CN[S+](N)([O-])=O)C3 | 118 | 125 | 132 | 129 | 124 | 125 | 124 | 121 | 121 | 113 | 104 | 123 | 126 | 123 | 128 | 124 | 122 | 123 | 111 | 117 | 103 | 105 |  |  |  |  |  |  |  |  |  |  | 
COc1c(C)cnc(Cn2cnc3c(Cl)nc(N)nc32)c1C | 109 | 114 | 106 | 125 | 118 | 104 | 85.1 | 67.9 | 55.1 | 50.2 | 50.5 | 116 | 123 | 125 | 125 | 124 | 94.1 | 61.6 | 50.5 | 48 | 40.9 | 38.1 | 110 | 121 | 119 | 116 | 115 | 99.8 | 58.3 | 47.8 | 45.1 | 40.9 | 37.9
CNC1CCC(N(Cc2cccc(-c3ccncc3)c2)C(=O)c2sc3ccccc3c2Cl)CC1 (stereo not given) | 96.9 | 102 | 107 | 99.9 | 97.3 | 99.7 | 107 | 13.8 | 4.58 | 1.97 | 0.291 | 89.2 | 92.9 | 91.4 | 96.6 | 94.5 | 94.8 | 102 | 61.3 | 4.21 | 3.93 | 1.13 | 79.1 | 86.1 | 86.9 | 95.8 | 86.2 | 94.4 | 97.1 | 44.7 | 4.4 | 3.5 | 0.803
CC(C)(C)C(=O)Oc1ccc2c(c1)nc(NC(=O)c1cccc([N+](=O)[O-])c1)n2CCCO | 120 | 123 | 118 | 119 | 115 | 119 | 116 | 106 | 109 | 111 | 106 |  |  |  |  |  |  |  |  |  |  |  | 118 | 122 | 121 | 117 | 118 | 112 | 115 | 103 | 111 | 97.4 | 89.4
C#Cc1cccc(Nc2ncnc3cc(OCCOC)c(OCCOC)cc23)c1 | 98.2 | 101 | 97.2 | 89.3 | 99.5 | 100 | 101 | 91.3 | 88.5 | 84.3 | 62 | 96.6 | 92.8 | 92.1 | 95.5 | 95.6 | 92 | 88.6 | 88.4 | 78.9 | 83.6 | 52.5 | 96.5 | 93.2 | 95.5 | 91.8 | 96.4 | 93.3 | 86.8 | 80.2 | 83.3 | 78.7 | 56.6
CC\1=C/C=C\C=[N]1[Pt](N)(Cl)Cl | 98.1 | 108 | 113 | 108 | 105 | 109 | 102 | 114 | 104 | 107 | 108 | 98.1 | 98.4 | 102 | 104 | 118 | 118 | 114 | 106 | 99.1 | 108 | 97.3 | 102 | 109 | 98.3 | 107 | 114 | 112 | 110 | 105 | 105 | 87.2 | 91.4
